Values joined by “and” are separate entries in the source; they are usually repeats but may differ in a detail not shown here. Equal entries are not always repeated.
Legend:
[1] = tested on: H1975 lung cancer cells; test: MTT assay (cell viability; CI and SI derived from it); assay type: cell-based, human; settings: for IC50: H1975, max tested 100 μM, combinations: Ru-PIP gradient with fixed Olaparib; for Selectivity Index (SI) = IC50 normal cells/IC50 cancer cells: MRC5 vs H1975
Procedure: (§1) Cells were seeded in 96-well plates at 5 × 10^3 cells/well and allowed to adhere overnight. […] For drug combination treatment, cells were treated with concentration gradient of Ru-PIP (3.125–100 µM) in combination with Olaparib (5 or 10 µM). After 24, 48 or 72 h incubation, 0.5 mg/ml thiazolyl blue tetrazolium bromide (MTT) dissolved in 1X PBS was added to each well and cells were incubated at 37 °C for 4 h. 100 µl of DMSO was added to each well to solubilize the reduced purple formazan crystals formed. Next, the absorbance at 570 nm (630 nm as reference wavelength) was measured using a microplate reader. The half maximal inhibitory concentration (IC50) for each compound was determined using GraphPad Prism software. Additionally, selectivity indices (SI) were determined by the ratio between IC50 of normal cells and that of cancer cells.
(§2) Based on the data obtained from MTT assay, combination indices (CI) were determined using Calcusyn and CompuSyn software (Biosoft, Cambridge, UK). This is based on the established drugs combination method by Chou and Talalay[30],[31]. CI values indicate the type of drugs interaction in which CI < 0.9 indicates synergism, CI = 0.9–1.0 indicates additive and CI > 1.0 indicates antagonism. GraphPad Prism software was used to generate a three-color scale based on CI values obtained, where synergism is represented by green, additive by yellow, and antagonism by red in which the colors of each CI value were interpolated in between these constraints accordingly.

[2] = tested on: A549 lung cancer cells; test: as above; assay type: cell-based, human; settings: for IC50: A549, max tested 100 μM, combinations: Ru-PIP gradient with fixed Olaparib; for Selectivity Index (SI) = IC50 normal cells/IC50 cancer cells: MRC5 vs A549
Procedure: as §1, §2

[3] = tested on: T24 bladder cancer cells; test: as above; assay type: cell-based, human; settings: for IC50: T24, max tested 100 μM, combinations: Ru-PIP gradient with fixed Olaparib; for Selectivity Index (SI) = IC50 normal cells/IC50 cancer cells: MRC5 vs T24
Procedure: as §1, §2

[4] = tested on: MRC5 normal human lung fibroblasts; test: MTT assay (cell viability); assay type: cell-based; settings: max tested 100 μM, combinations: Ru-PIP gradient with fixed Olaparib
Procedure: as §1

[5] = tested on: A549 cells; test: Cell cycle analysis (PI staining, flow cytometry); assay type: cell-based, human; settings: Ru-PIP 25 µM, 24 h
Procedure: Lung cancer cells were seeded in 6-well plate at density of 1 × 10^5 cells/well and allowed to adhere overnight. Cells were treated with Ru-PIP (25 µM), Olaparib (5 µM) or both. After 24 or 48 h incubations, cells were harvested, washed with 1X PBS twice, and fixed with ice-cold 70% ethanol at least overnight at − 20 °C. The fixed cells were collected by centrifugation at 1,000 rpm for 5 min and the resulting pellets were washed with 1X PBS twice. The samples were resuspended in 500 µl PBS and treated with 5 µl RNase A solution (10 mg/ml) for 15 min at RT. After incubation, the samples were stained with 2 µl of propidium iodide (PI) solution (5 mg/ml) at RT, in the dark. Samples were acquired, and cell cycle distribution was analyzed using NovoCyte flow cytometer and NovoExpress software. For each sample, a minimum of 10,000 cells were counted and analyzed.

[6] = tested on: A549 cells; test: Apoptosis annexin V-FITC assay; assay type: cell-based, human
Procedure: Lung cancer cells were seeded in 6-well plate at 1 × 10^5 cells/well and allowed to adhere overnight. Cells were treated with Ru-PIP (25 µM), Olaparib (5 µM) or both. After 24 or 48 h incubations, cells were harvested, washed with 1X PBS twice and 500 µl of 1X binding buffer was added to the samples. After, the samples were incubated with 5 µl Annexin V-FITC (Invitrogen) for 20 min at RT. Prior to flow cytometric analysis, 5 µl of PI was added. Samples were acquired was analyzed using NovoCyte flow cytometer and NovoExpress software. For each sample, a minimum of 10,000 cells were counted and analyzed.

[7] = in vivo; settings: zebrafish, in vivo
Procedure: (§3) The newly fertilized eggs at less than 1 hpf (hours post fertilization) were collected, washed with deionized water and incubated at RT (28 ± 1 °C) in Danio-SprintM embryo media. […] Untreated control consisting of Danio-SprintM embryo media containing 0.1% DMSO. 24 embryos were used in total for each concentration per treatment of two independent experiments (n = 24). The zebrafish embryos development was observed and imaged using a light microscope attached to a digital camera at 24, 48, 72 and 96 hpf (hours post fertilization). Four lethal endpoints were evaluated including coagulated embryos, lack of somite formation, non-detachment of the tail and lack of heartbeat. All these characteristics were recorded every 24 hpf, except heartbeat, which is visible after 48 hpf. […] Hatching which is also considered as a sensitive endpoint toxicity parameter was also observed in which hatching normally occurs at 48 to 72 hpf.

[8] = tested on: zebrafish embryos; test: Acute toxicity test on zebrafish embryos (OECD Test No. 236); settings: zebrafish embryos
Procedure: as §3

[9] = tested on: A549 spheroids; test: Spheroids growth inhibition studies; assay type: cell-based, human; settings: Ru-PIP 25 µM; for structural integrity of pre-formed spheroids: Olaparib 5 µM or both, 12 days after treatment initiation
Procedure: Spheroids establishment was attempted for A549 lung cancer cells using hanging drop method. 20 µL of cell suspension containing 2000, 4000, 6000, 8000 and 10,000 cells were dropped onto the surface of petri dish lid and incubated at 37 °C, such that each drop will contain single spheroid. After three days of incubation, each spheroid formed was transferred onto agarose-coated (50 µL, 0.6%) 96-well plates containing 80 µL growth media and further incubated for 15 days at 37 °C, such that each well contained a single spheroid. Formation of spheroids was observed and imaged every three days using a light microscope with a 4 × objective lens connected to a digital camera. During growth, 50% of the media was replaced every three days. The growth in volume of each spheroid was determined according to a published method. At least six spheroids were grown per seeding density for each independent experiment.
Spheroids were grown as described initially. Initial cell seeding density was chosen such that each spheroid reached a diameter of approximately 400 μm after three days (4,000 cells/well for A549 cells). After spheroids formation, spheroids were incubated with Ru-PIP (25 µM), Olaparib (5 µM) or both for a period of 12 days. The structural integrity of spheroids upon treatment was observed and imaged for every three days using a light microscope with a 4 × objective lens connected to a digital camera, and the volume of each spheroid was measured according to a published method. Prior to imaging, 50% of treatment-containing medium was replaced (every three days). At least six spheroids were grown per treatment for each independent experiment.

[10] = tested on: A549 cells; test: Wound healing assay; assay type: cell-based, human
Procedure: Lung cancer cells were seeded at density of 5 × 10^5 cells/well in a 6-well plate and were incubated in the incubator until a confluent monolayer of cells formed. After serum-starved for 4 h, a straight scratch was made in each well with a sterile 200 µl pipette tip, solution was removed, and each well was washed with 1X PBS twice. Cells were treated with Ru-PIP (25 µM), Olaparib (5 µM) or both. Cells migration in the wound scratch area was photographed at 0, 24, 48 and 72 h timepoints. Images were photographed at 10 × magnification using a camera attached microscope and were analyzed using ImageJ software. The percentage of wound scratch closure was determined by measuring the reduction in the wound area at each time point by comparing to 0 h (100%).

[11] = tested on: A549, H1975 and T24 cells; test: MTT assay, summary statements over the cancer cell lines; assay type: cell-based, human
Procedure: as §1

[12] = 24 h, Ru-PIP 25 µM or Olaparib 5 µM

With N.N.[Cl][Pt][Cl] [Cisplatin, cis-diamminedichloroplatinum(II)] the IC50 ([1]; 24 h) was 26.6 ± 9.9 µM, the IC50 ([1]; 48 h) was 20 ± 6.7 µM and the IC50 ([1]; 72 h) was 13.5 ± 5.7 µM. The IC50 ([2]; 24 h) was 6.6 ± 2 µM, the IC50 ([2]; 48 h) was 4.8 ± 0.5 µM and the IC50 ([2]; 72 h) was 2.9 ± 1.2 µM. For the same molecule, the IC50 ([3]; 24 h) was 59.6 ± 7 µM, the IC50 ([3]; 48 h) was 20.8 ± 7.2 µM and the IC50 ([3]; 72 h) was 7.3 ± 1.1 µM. For the same molecule, the IC50 ([4]; 24 h) was 13.5 ± 2.4 µM, the IC50 ([4]; 48 h) was 9.5 ± 1.2 µM and the IC50 ([4]; 72 h) was 7.4 ± 2 µM.
O=C(c1cc(Cc2n[nH]c(=O)c3ccccc23)ccc1F)N1CCN(C(=O)C2CC2)CC1 [Olaparib] showed an IC50 ([1]; Homo sapiens, NCI-H1975, 24 h) of over 100 µM, an IC50 ([1]; Homo sapiens, NCI-H1975, 48 h) of over 100 µM and an IC50 ([1]; Homo sapiens, NCI-H1975, 72 h) of 71.7 ± 11.8 µM. The “Selectivity Index (SI) = IC50 normal cells/IC50 cancer cells” value (from here on “Selectivity Index”) ([1]; 72 h) was over 1.3, the IC50 ([2]; Homo sapiens, 24 h) was over 100 µM and the IC50 ([2]; Homo sapiens, 48 h) was over 100 µM. For the same molecule, the IC50 ([2]; Homo sapiens, 72 h) was over 100 µM, the IC50 ([3]; Homo sapiens, 24 h) was over 100 µM and the IC50 ([3]; Homo sapiens, 48 h) was over 100 µM. For the same molecule, the IC50 ([3]; Homo sapiens, 72 h) was over 100 µM, the cell cycle profile ([5]; Olaparib 5 µM or both) was “comparable cell cycle profile with the untreated control” and the “levels of apoptotic cells” value [6, 12] was “comparable levels of apoptotic cells with untreated control”. The LC50 at 96 h [7] was over 100 mg/L, the “morphological changes of embryos” value ([8]; > 25 mg/L) was “substantial morphological abnormalities of pericardial edema, yolk sac edema and spinal deformity” and the “structural integrity of pre-formed spheroids” value [9] was “remained structurally intact”. The “impact on cell migration” value ([10]; Olaparib 5 µM) was “negligible impact on cell migration”, the IC50 ([11]; Homo sapiens, 72 h, A549, H1975 and T24 cells together, read-out: 72 h IC50 on the tested cancer cells) was over 71.7 µM and the IC50 ([4]; Homo sapiens, 24 h) was over 100 µM. For the same molecule, the IC50 ([4]; Homo sapiens, 48 h) was over 100 µM and the IC50 ([4]; Homo sapiens, 72 h) was over 100 µM.
[Ru+2].c1ccc(-c2nc3c4cccnc4c4ncccc4c3[nH]2)cc1.c1ccc2nc3c4cccnc4c4ncccc4c3nc2c1.c1ccc2nc3c4cccnc4c4ncccc4c3nc2c1 [Ru-PIP, [Ru(dppz)2(PIP)]^2+] gave an IC50 ([1]; 24 h) of over 100 µM, an IC50 ([1]; 48 h) of 95.1 ± 2.9 µM and an IC50 ([1]; 72 h) of 59.4 ± 11.6 µM. The “Selectivity Index” value ([1]; 48 h) was 0.9, the “Selectivity Index” value ([1]; 72 h) was over 1.6 and the IC50 ([2]; 24 h) was 34.5 ± 10.5 µM. The IC50 ([2]; 48 h) was 19.4 ± 3.5 µM, the IC50 ([2]; 72 h) was 11.4 ± 0.3 µM and the “Selectivity Index” value ([2]; 24 h) was over 2.8. The “Selectivity Index” value ([2]; 48 h) was 4.6, the “Selectivity Index” value ([2]; 72 h) was over 8.7 and the “Selectivity Index” value ([3]; 24 h) was over 2.2. The “Selectivity Index” value ([3]; 48 h) was 4.0, the “Selectivity Index” value ([3]; 72 h) was over 6.3 and the IC50 ([3]; 24 h) was 45.1 ± 6.2 µM. The IC50 ([3]; 48 h) was 22.7 ± 2.8 µM, the IC50 ([3]; 72 h) was 15.8 ± 2.9 µM and the “increase in G1 phase compared to control” value [5] was 16.1%. The “levels of apoptotic cells” value [6, 12] was “comparable levels of apoptotic cells with untreated control”, the “levels of apoptotic cells” value ([6]; 48 h, Ru-PIP 25 µM alone or with Olaparib 5 µM) was “increase in apoptotic cells was observed” and the “embryos showing yolk sac edema” value ([8]; 50 mg/L Ru-PIP alone, 96 hpf) was 33%. For the same molecule, the “embryos' hatching prevented” value ([8]; 100 mg/L) was about 100%, the “96 h LC50” value ([8]; 96 h treatment) was 57.5 mg/L and 55.5 mg/L and the “survival and morphological changes of embryos” value ([8]; < 25 mg/L) was “the embryos survive without any morphological defects”. For the same molecule, the spheroid growth ([9]; 12 days) was “prevented spheroid growth”, the “structural integrity of pre-formed spheroids” value [9] was “remained structurally intact” and the wound closure ([10]; Ru-PIP 25 µM, time point not stated (untreated 100% closed at 72 h)) was 88%. For the same molecule, the “selectivity indices (SI)” value ([11]; 72 h treatments, A549, H1975 and T24 cells vs normal MRC5 cells) was over 1.6, the IC50 ([4]; 24 h) was over 100 µM and the IC50 ([4]; 48 h) was 91 ± 7.9 µM. It also gave an IC50 ([4]; 72 h) of over 100 µM.
